From patent US8017350B2, “Glimepiride- and insulin-induced glycosylphosphatidylinositol-specific phospholipase C regulation” (Sanofi-Aventis Deutschland GmbH, priority 2004, dated 2011) come the findings set out here.

The target of one assay is T1, rat serum GPI-PLD (Rattus norvegicus, UniProt Q8R2H5).
T1 construct: GPI-PLD (rat serum) was assayed according to; from tissue; host or cells: rat serum
Briefly: GPI-PLD (rat serum) assay, human placental aP substrate. In kind it is biochemical. The note with it: FIG. 2; read-out: apparent IC50. As for the experimental part:
GPI-PLD (rat serum) was assayed according to “Hari et al. (1997) Biochim. Biophys. Acta 1355: 293-302” by incubation with 10 μl of human placental aP solution (100 U/ml in 10 mM Hepes/NaOH, pH 7.0, 150 mM NaCl) in 100 μl of 200 mM Tris/maleate (pH 7.0) and 1% Nonidet P-40 for 10 min at 37° C. and subsequent termination of the reaction by addition of 0.4 ml of ice-cold stop buffer (10 mM Hepes/NaOH, pH 7.0, 150 mM NaCl, 0.1 mM MgCl2 and 0.01 mM zinc acetate). GPI-PLC (T. brucei) was assayed as described in “Mensa-Wilmot et al. (1995) Methods Enzymol. […]
Pelleted hc/lcDIGs (10-50 μg protein) or (G)PI-PLC reaction mixtures (0.5 ml) were separated into amphiphilic and hydrophilic proteins using partitioning between TX-114-enriched and depleted phases according to “Bordier, C., (1981) J. Biol, Chem. […]” by suspending in 1 ml of ice-cold TX-114 (1%), 25 mM Tris/HCl (pH 7.4), 144 mM NaCl or mixing with 0.5 ml of ice-cold TX-114 (2%), respectively. […] After re-extraction of the lower TX-114-enriched phase, aliquots of the pooled upper TX-114-depleted phase were measured for 5′-Nuc, aP and AChE activity or precipitated (15 polyethylene glycol 4000) for SDS-PAGE analysis.
FIG. 2: Potency of GPI-2350. […] The lipolytic activity was calculated as % of the control reaction in the absence of GPI-2350 (set at 100%). […]

The subject of assay [1] is GPI-PLC, intact rat adipocytes. The assay can be described thus: GPI-PLC activity in intact rat adipocytes (amphiphilic-to-hydrophilic conversion of endogenous 5'-Nuc, Gce1, aP). Format: cell-based. The method, then:
Adipocytes isolated by digestion from epididymal fat pads of male rats (120-140 g, fed ad libitum, see Ref. 53 [Muller et al.; Mol. Cell. Biol. 21:[…] (2001)]) were washed twice in KRH (20 mM Hepes/KOH, pH 7.4, 1.2 mM KH2PO4, 140 mM NaCl, 4.7 mM KCl, 2.5 mM CaCl2, 1.2 mM MgSO4) containing 1% (w/v) BSA and then incubated in the same medium supplemented with 100 μg/ml gentamycin, 100 nM 1-methyl-2-phenylethyladenosine, 0.5 U/ml adenosine deaminase, 1 mM sodium pyruvate and 5 mM D-glucose in the absence or presence of GPI-2350 (prepared as 10 mM stock solution in DMSO, the final DMSO concentration in the in vitro and adipocyte incubations was kept constant at 0.5% at any inhibitor concentration), insulin or glimepiride (prepared as described in “Müller et al. (1994) J. Cell. Biol. 126:1267-1276”) at 37° C. in a shaking water bath at constant bubbling with 5% CO2/95% O2 at a final titer of 100 μl of packed cell volume per ml incubation volume (determined by aspiration of small aliquots into capillary hematocrit tubes and centrifugation for 60 s [seconds] in a microhematocrit centrifuge in order to determine the fractional occupation of the suspension by the adipocytes; 10% cytocrit corresponds to about 1.5×10^6 cells/ml) for the periods indicated. […]

T1 sequence (Q8R2H5 24-843): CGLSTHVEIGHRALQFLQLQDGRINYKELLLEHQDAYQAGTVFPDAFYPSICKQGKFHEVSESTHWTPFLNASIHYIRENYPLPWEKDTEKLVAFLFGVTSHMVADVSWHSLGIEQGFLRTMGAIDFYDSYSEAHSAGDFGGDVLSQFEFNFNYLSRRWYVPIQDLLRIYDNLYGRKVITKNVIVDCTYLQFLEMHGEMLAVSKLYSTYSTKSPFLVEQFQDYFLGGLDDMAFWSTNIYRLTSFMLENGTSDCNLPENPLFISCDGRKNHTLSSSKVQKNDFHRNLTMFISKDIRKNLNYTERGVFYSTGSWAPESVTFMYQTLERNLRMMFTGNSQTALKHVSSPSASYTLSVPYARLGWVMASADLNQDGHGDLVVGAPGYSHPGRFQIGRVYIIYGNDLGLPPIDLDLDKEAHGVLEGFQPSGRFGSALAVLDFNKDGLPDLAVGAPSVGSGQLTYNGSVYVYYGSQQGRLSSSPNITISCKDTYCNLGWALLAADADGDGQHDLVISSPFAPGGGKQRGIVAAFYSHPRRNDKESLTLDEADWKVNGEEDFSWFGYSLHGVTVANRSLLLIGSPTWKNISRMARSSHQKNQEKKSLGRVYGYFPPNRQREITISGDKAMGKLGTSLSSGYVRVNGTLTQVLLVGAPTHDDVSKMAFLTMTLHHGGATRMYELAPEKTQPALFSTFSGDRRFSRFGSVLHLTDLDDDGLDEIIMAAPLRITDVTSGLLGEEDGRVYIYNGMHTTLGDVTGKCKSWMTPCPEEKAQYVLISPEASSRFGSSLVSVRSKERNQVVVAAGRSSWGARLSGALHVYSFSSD

`CCCCCCCCCCCCP1(=O)O[C@@H]2[C@H](O)[C@@H](O)[C@H](O)[C@@H](O)[C@@H]2O1` (stereo partly drawn) [GPI-2350, myo-inositol-1,2-cyclo-dodecylphosphonic acid]: the IC50 at rat serum GPI-PLD is 1000 nM; in assay [1] (FIG. 8, read-out: concentration of half-maximal inhibition of the GPI-PLC), 5000 nM. In addition, the “reduction of basal and glimepiride-/insulin-stimulated GPI-PLC activity” value in assay [1] (intact adipocytes, concentration-dependent) was “to lower than basal and similar levels”.
